Assay results reported in publication PMC8584931 (International Journal of Molecular Sciences, 2021).

Legend:
[1] = tested on: PC-3 cells; test: cells; details: Homo sapiens, PC-3, 48 h, read-out: PC-3 IV (intermediate value)
Procedure: (§1) Cell viability was evaluated by MTT assay.
(§2) It is necessary for this IV to have a method of comparison for the combination of experiments.
(§3) Human colorectal cancer HT-29 and prostate cancer PC-3 cell lines were obtained from the American Type Culture Collection (ATCC; Manassas, VA, USA) and maintained according to ATCC’s recommendations at 37 °C and 5% CO2 in appropriate medium supplemented with 10% foetal bovine serum, 100 U/mL penicillin G and 100 µg/mL streptomycin. Cells were maintained in the logarithmic growth phase at all times. The media were changed every 2 days and trypsinised with 0.25% trypsin–EDTA. A total of 100 µL of HT-29 cells (7500 cells/well) or PC-3 cells (5000 cells/well) were seeded in 96-well plates and allowed to adhere overnight before drug exposure. After 24 h, the cell culture media were replaced with 100 µL of drug-containing media. […]
(§4) The IV value was first determined for each drug alone in HT-29 and PC-3 cells. […] Both Drug A and Drug B concentrations were variable, and the combined effects of equipotent concentrations (fixed ratio) of the IV values for each drug were evaluated.
(§5) For the MTT protocol, after drug treatment, the cell medium was removed and 100 µL/well of MTT solution (0.5 mg/mL in PBS) was added. […] Absorbance was measured at 570 nm in an automated microplate reader (Tecan Infinite M200, Tecan Group Ltd., Männedorf, Switzerland). […]

[2] = tested on: HT-29 cells; test: cells; details: Homo sapiens, HT-29, 48 h, read-out: HT-29 IV (intermediate value)
Procedure: as §1, §2, §3, §4, §5

IC50 [1] [nM] | IC50 [2] [nM] | Compound
10 | – | CC(=O)O[C@H]1C(=O)[C@@]2(C)[C@H]([C@H](OC(=O)c3ccccc3)[C@]3(O)C[C@H](OC(=O)[C@H](O)[C@@H](NC(=O)c4ccccc4)c4ccccc4)C(C)=C1C3(C)C)[C@]1(OC(C)=O)CO[C@@H]1C[C@@H]2O [PTX, paclitaxel]
– | 2580 | O=c1[nH]cc(F)c(=O)[nH]1 [5-FU, 5-fluorouracil]
